Drawing on article PMC10527014 (Antiviral research, 2023), this text covers CC50 for one molecule.

The subject of the series is RD. Put plainly: Cytotoxicity. Particulars: read-out: 50% Cytotoxic concentration CC50, line of ma-EV-D68. The class given is cell-based, human.

Structures are written as SMILES.

Turning to `Cc1cc(-c2noc(C(F)(F)F)n2)ccc1OCCCc1cc(C(=O)N(C)C)no1` [compound 11526092, 3-(3-methyl-4-(3-(3-N,N-dimethylcarbamoyl-isoxazol-5-yl)propoxy)phenyl)-5-trifluoromethyl-1,2,4-oxadiazole], the CC50 was 9.4 µM.
